Experimental data reported in DBAASP.
In brackets after ≈: the same amount, converted by molar mass.

Experiments:
Test in all cases: ≥ marks a high value that may be exact or a test limit, other limits are often not marked, values filed in µg/mL are converted to µM
Escherichia coli BL21 = system: Escherichia coli BL21
[1] = system: Pseudomonas aeruginosa PAO1
[2] = system: Streptococcus pyogenes M1T1 5448
[3] = system: Escherichia coli NCTC 10418
[4] = system: Staphylococcus aureus NCTC 12981
[5] = system: Bacillus licheniformis X39
[6] = system: Psychrobacter faecalis X29
[7] = system: Rhodococcus rhodochrous X15
[8] = system: Staphylococcus aureus ATCC 2592
[9] = system: Staphylococcus carnosus KHS
[10] = system: Candida albicans ATCC 2002
[11] = system: Candida albicans ATCC 90028
[12] = system: Escherichia coli ATCC 25922
[13] = system: Escherichia coli CIB 84492
[14] = system: Pseudomonas aeruginosa CMCCB 10104
[15] = system: Staphylococcus aureus ATCC 25923
[16] = system: Staphylococcus aureus CIB 85462
[17] = system: Staphylococcus aureus NCTC 8325
[18] = system: Bacillus subtilis ATCC 6633
[19] = system: Candida albicans ATCC 36232
[20] = system: Corynebacterium diphtheriae ATCC 8024
[21] = system: Escherichia coli ATCC 2592
[22] = system: Micrococcus luteus ATCC 9341
[23] = system: Pseudomonas aeruginosa ATCC 9027
[24] = system: Shigella flexneri ATCC 203
[25] = system: Staphylococcus aureus ATCC 6538
Staphylococcus aureus = system: Staphylococcus aureus
[26] = system: Staphylococcus epidermidis ATCC 12228
Escherichia coli = system: Escherichia coli
Listeria innocua = system: Listeria innocua
Micrococcus luteus A270 = system: Micrococcus luteus A270
[27] = system: Salmonella enterica subsp. enterica serovar Enteritidis
[28] = system: Pseudomonas aeruginosa H1001

`CC[C@H](C)[C@H](NC(=O)[C@H](CCC(=O)O)NC(=O)[C@H](CCCN=C(N)N)NC(=O)[C@H](CCCN=C(N)N)NC(=O)[C@H](CC(C)C)NC(=O)[C@H](Cc1ccc(O)cc1)NC(=O)[C@H](CCCCN)NC(=O)[C@H](C)NC(=O)[C@@H](NC(=O)[C@@H](NC(=O)[C@H](CCC(N)=O)NC(=O)[C@H](CCCN=C(N)N)NC(=O)[C@H](Cc1c[nH]c2ccccc12)NC(=O)[C@H](C)N)[C@@H](C)O)[C@@H](C)CC)C(=O)N[C@@H](CCCN=C(N)N)C(=O)N[C@@H](CCCCN)C(=O)N[C@@H](CCCN=C(N)N)C(=O)NCC(=O)N[C@@H](CCCN=C(N)N)C(=O)N[C@@H](CCCCN)C(=O)N[C@@H](C)C(=O)N[C@H](C(=O)N[C@H](C(=O)N[C@@H](C)C(=O)N[C@@H](Cc1c[nH]c2ccccc12)C(=O)O)[C@@H](C)CC)C(C)C` [AWRQTIAKYLRREIRKRGRKAVIAW] was tested, and the MIC (Escherichia coli BL21) was 1 µM (≈ 3.13 µg/mL), the MIC [1] was 4 µM (≈ 12.5 µg/mL) and the MIC [2] was 4 µM (≈ 12.5 µg/mL).

For `NC(=O)[C@H](Cc1ccccc1)NC(=O)[C@H](CCCN=C(N)N)NC(=O)[C@H](Cc1ccccc1)NC(=O)[C@H](CCCN=C(N)N)NC(=O)[C@@H](N)Cc1ccccc1` [FRFRF], the MIC [3] was at least 166 µM and the MIC [4] was at least 166 µM.

Compound `CC[C@H](C)[C@H](NC(=O)CN)C(=O)N[C@@H](Cc1ccccc1)C(=O)N[C@@H](CO)C(=O)N[C@@H](CC(C)C)C(=O)N[C@@H](Cc1ccccc1)C(=O)N[C@@H](CCCCN)C(=O)N[C@@H](C)C(=O)NCC(=O)N[C@@H](C)C(=O)N[C@@H](CCCCN)C(=O)N[C@@H](Cc1ccccc1)C(=O)N[C@@H](Cc1ccccc1)C(=O)NCC(=O)N[C@@H](CCCCN)C(=O)N[C@@H](Cc1cnc[nH]1)C(=O)N[C@@H](CC(C)C)C(=O)N[C@@H](CC(C)C)C(=O)N[C@@H](CCCCN)C(=O)N[C@@H](CCC(N)=O)C(=O)N[C@@H](C)C(=O)NCC(=O)N[C@@H](CCCCN)C(=O)N[C@@H](C)C(=O)NCC(=O)N[C@@H](C)C(=O)N[C@@H](CCC(=O)O)C(=O)N[C@@H](Cc1cnc[nH]1)C(=O)N[C@@H](CC(C)C)C(=O)N[C@@H](C)C(=O)N[C@H]1CSSC[C@@H](C(=O)O)NC(=O)[C@H](CCC(N)=O)NC(=O)[C@H](CC(N)=O)NC(=O)[C@H]([C@@H](C)O)NC(=O)[C@H](C)NC(=O)[C@H](CCCCN)NC1=O` [GIFSLFKAGAKFFGKHLLKQAGKAGAEHLACKATNQC] has an MIC [5] of 3.2 µM (≈ 12.4 µg/mL), an MIC [6] of 1.6 µM (≈ 6.22 µg/mL) and an MIC [7] of 0.8 µM (≈ 3.11 µg/mL). It also gave an MIC [8] of 1.6 µM (≈ 6.22 µg/mL) and an MIC [9] of 3.2 µM (≈ 12.4 µg/mL).

For `CC[C@H](C)[C@H](NC(=O)[C@H](CC(C)C)NC(=O)[C@H](CCCCN)NC(=O)[C@H](C)NC(=O)[C@H](C)NC(=O)CNC(=O)[C@H](CCCCN)NC(=O)[C@@H](NC(=O)[C@H](CC(C)C)NC(=O)[C@@H](NC(=O)[C@H](Cc1ccccc1)NC(=O)[C@H](CC(C)C)NC(=O)CN)[C@@H](C)O)[C@@H](C)CC)C(=O)NCC(=O)N[C@@H](CCCCN)C(=O)N[C@H](C(=O)N[C@H](C(=O)N[C@@H](C)C(=O)N[C@@H](CCCCN)C(=O)N[C@@H](CCC(=O)O)C(=O)N[C@@H](C)C(=O)NCC(=O)N[C@@H](CCCCN)C(=O)N[C@H](C(=O)NCC(=O)N[C@@H](CC(C)C)C(=O)N[C@@H](CCC(=O)O)C(=O)N[C@@H](CC(C)C)C(=O)N[C@@H](CCSC)C(=O)N[C@@H](C)C(=O)N[C@H]1CSSC[C@@H](C(=O)O)NC(=O)[C@H](CCC(N)=O)NC(=O)[C@H](CC(N)=O)NC(=O)[C@H]([C@@H](C)O)NC(=O)[C@H]([C@@H](C)CC)NC(=O)[C@H](CCCCN)NC1=O)[C@@H](C)O)C(C)C)[C@@H](C)O` [GLFTLIKGAAKLIGKTVAKEAGKTGLELMACKITNQC], the MIC [10] was 1.33 µM (≈ 5.1 µg/mL), the MIC [11] was at least 100 µM and the MIC [12] was 2.67 µM (≈ 10.2 µg/mL). It also gave an MIC [13] of at least 33.5 µM, an MIC [14] of 2.67 µM (≈ 10.2 µg/mL) and an MIC [15] of 1.33 µM (≈ 5.1 µg/mL). The MIC [16] was 8.37 µM (≈ 32 µg/mL) and the MIC [17] was at least 50 µM.

Compound `CC(C)C[C@H](NC(=O)[C@H](CS)NC(=O)[C@H](Cc1cnc[nH]1)NC(=O)[C@H](C)NC(=O)[C@H](C)NC(=O)[C@H](CS)NC(=O)[C@H](C)NC(=O)[C@H](C)NC(=O)[C@H](CC(=O)O)NC(=O)[C@@H](N)CC(N)=O)C(=O)N[C@@H](Cc1ccccc1)C(=O)N[C@@H](CCCN=C(N)N)C(=O)NCC(=O)N[C@@H](CCCN=C(N)N)C(=O)N[C@@H](CO)C(=O)NCC(=O)NCC(N)=O` [NDAACAAHCLFRGRSGG] has an MIC [18] of at least 58.6 µM, an MIC [19] of at least 58.6 µM and an MIC [20] of at least 58.6 µM. It also gave an MIC [21] of at least 58.6 µM, an MIC [22] of at least 58.6 µM and an MIC [23] of over 58.6 µM. For the same compound, the MIC [24] was at least 58.6 µM, the MIC [25] was over 58.6 µM and the MIC (Staphylococcus aureus) was over 58.6 µM. For the same compound, the MIC [26] was over 58.6 µM.

`C[C@@H](O)[C@H](NC(=O)[C@H](CCCCN)NC(=O)[C@@H](NC(=O)[C@@H](NC(=O)[C@@H]1CCCN1)[C@@H](C)O)[C@@H](C)O)C(=O)N[C@@H](Cc1ccc(O)cc1)C(=O)N[C@@H](Cc1ccccc1)C(=O)N1CCC[C@H]1C(=O)N[C@@H](Cc1cnc[nH]1)C(=O)N[C@@H](Cc1ccccc1)C(=O)O` [PTTKTYFPHF] gave an MIC (Escherichia coli) of 9 µM (≈ 11.1 µg/mL), an MIC (Listeria innocua) of 1 µM (≈ 1.24 µg/mL) and an MIC (Micrococcus luteus A270) of 1 µM (≈ 1.24 µg/mL). The MIC [27] was 9 µM (≈ 11.1 µg/mL).

With `NC(=O)[C@H](CCCN=C(N)N)NC(=O)[C@H](CCCN=C(N)N)NC(=O)[C@H](Cc1c[nH]c2ccccc12)NC(=O)[C@@H]1CCCN1C(=O)[C@H](Cc1c[nH]c2ccccc12)NC(=O)[C@H](Cc1c[nH]c2ccccc12)NC(=O)[C@@H]1CCCN1` [PWWPWRR] the MIC [22] was 3.1 µM (≈ 3.36 µg/mL) and the MIC [28] was at least 231 µM.

Compound `CC(C)C[C@H](NC(=O)[C@H](CCCN=C(N)N)NC(=O)[C@@H]1CCCN1C(=O)[C@H](CCCN=C(N)N)NC(=O)[C@H](CCCN=C(N)N)NC(=O)[C@@H]1CCCN1C(=O)[C@@H](N)CCCN=C(N)N)C(=O)N1CCC[C@H]1C(=O)N[C@@H](Cc1c[nH]c2ccccc12)C(N)=O` [RPRRPRLPW] has an MIC [3] of at least 104 µM and an MIC [4] of at least 104 µM.

For `CC[C@H](C)[C@H](NC(=O)[C@H](CCCN=C(N)N)NC(=O)[C@H](Cc1ccc(O)cc1)NC(=O)[C@H](Cc1c[nH]c2ccccc12)NC(=O)[C@H](CCCN=C(N)N)NC(=O)[C@@H](NC(=O)[C@@H](N)CCCN=C(N)N)C(C)C)C(=O)N[C@@H](Cc1ccccc1)C(=O)N[C@@H](Cc1ccc(O)cc1)C(N)=O` [RVRWYRIFY], the MIC [28] was 1.47 µM (≈ 2 µg/mL).

`CC(C)[C@H](NC(=O)[C@H](CS)NC(=O)[C@@H](NC(=O)[C@H](CCCN=C(N)N)NC(=O)[C@H](CCCCN)NC(=O)CNC(=O)[C@H](CC(N)=O)NC(=O)[C@H](CS)NC(=O)[C@@H](N)Cc1ccc(O)cc1)C(C)C)C(=O)N[C@@H](CS)C(N)=O` [YCNGKRVCVC] gave an MIC [18] of at least 87.4 µM, an MIC [19] of at least 87.4 µM and an MIC [20] of at least 87.4 µM. The MIC [21] was at least 87.4 µM, the MIC [22] was at least 87.4 µM and the MIC [23] was over 87.4 µM. For the same compound, the MIC [24] was at least 87.4 µM, the MIC [25] was over 87.4 µM and the MIC (Staphylococcus aureus) was over 87.4 µM. The MIC [26] was over 87.4 µM.
